Source: PMC4209961 (Journal of nuclear medicine : official publication, Society …, 2013)

System: U87MG tumors
Assay: Tumor growth
Type: in vivo, athymic nude mice
Conditions: two doses of doxorubicin 5 mg/kg/dose two days apart, tail vein; at day 5 after the treatment started, P < 0.05

COc1cccc2c1C(=O)c1c(O)c3c(c(O)c1C2=O)C[C@@](O)(C(=O)CO)C[C@@H]3O[C@H]1C[C@H](N)[C@H](O)[C@H](C)O1 [doxorubicin]
tumor growth response: significant growth inhibition
